Assay results from patent US12486265B2, “2-aminopyrimidine compounds and pharmaceutical compositions and uses thereof” (Shanghai Zhimeng Biopharma, Inc., priority 2019, dated 2025).
Read-outs that look alike come from different tables or passages of the source.

How the values were obtained:
[1] = Pharmacokinetic study in male SD rats; format: in vivo; conditions: rat, plasma
Protocol: Pharmacokinetic study: 6 healthy male SD rats (SPF grade) were divided into 2 groups and 3 rats/group. […] Within half an hour, plasma was taken after centrifugation (6000 rpm, 8 minutes, 4° C.) and frozen at −20° C. for later use. Experimental results: According to the obtained blood drug concentration data, the non-compartmental model of WinNonlin® 8.1 software (Certara, USA) was used to calculate the pharmacokinetic parameters after administration.

[2] = Cell activity detection (Celltiter-Glo) in human PBMC; format: cell-based
Protocol: (§1) Resuspended, cell number was counted, and the cell suspension was adjusted to 2.5×10^6 cells/ml with the culture medium.
(§2) Cell activity detection: cell activity was analyzed by GraphPad Prism software, and the dose effect curve of the compound was fitted to calculate the CC50 value of the compound to the cell.

[3] = Liver-blood ratio study in male SD rats; format: in vivo; conditions: rat, liver / plasma, single oral administration; for Kp at 1 h: time point 1 h; for Kp at 4 h: time point 4 h
Protocol: Liver-blood ratio study: 4 healthy male SD rats (SPF grade) were divided into 2 groups and 2 rats/group. After fasting overnight, compound A and compound X were administrated orally respectively. Blood was taken through cardiac puncture at time points 1 and 4 hours, at least 0.5 mL of whole blood was collected to EDTA-K2 anticoagulant tube, and plasma was taken after centrifugation (6000 rpm, 8 minutes, 4° C.) within half an hour and frozen at −20° C. for later use. At the same time, liver tissue was collected, rinsed with normal saline, then blotted dry with absorbent paper, weighed, and frozen at −20° C. for later use.

[4] = Cell activity detection (Celltiter-Glo) in HEK-Blue hTLR8 cells; format: cell-based; conditions: human
Protocol: (§3) [drawing 45] per well; • (2) HEK-Blue™ hTLR7/8 cells were digested separately, counted, and the cells at 5.0×10^4 cells per well were added to a 96-well cell culture plate containing compounds; (3) The cells added with the compound were placed in a 5% CO2 incubator at 37° C. for 24 hours; • (4) Compound activity detection: took 20 µl/well cell culture supernatant and added it to 96-well plate containing 180 μl QUANTI-BLUE™ reagent. Incubated at 37° C. for one hour, and the optical density absorption value (OD650) at 650 nm was detected with a multifunctional microplate reader; • (5) Cell activity detection: operated according to the Celltiter-Glo instructions, and the chemiluminescence signal (RLU) was detected by a multifunctional microplate reader Envision; • (6) Data analysis: • Compound activity: OD650 value was analyzed by GraphPad Prism software, and the dose effect curve of the compound was fitted to calculate the EC50 value of the compound.
as §2

human TLR7 = target: T1, human TLR7 (Homo sapiens, UniProt Q9NYK1); experiment: hTLR7 receptor binding activity in vitro (HEK-Blue hTLR7 SEAP reporter); format: cell-based; conditions: HEK-Blue hTLR7 cells, 24 hours, SEAP OD650
T1 construct: host or cells: HEK-Blue hTLR7 (HEK293-derived)
T1 sequence (Q9NYK1 27-1049): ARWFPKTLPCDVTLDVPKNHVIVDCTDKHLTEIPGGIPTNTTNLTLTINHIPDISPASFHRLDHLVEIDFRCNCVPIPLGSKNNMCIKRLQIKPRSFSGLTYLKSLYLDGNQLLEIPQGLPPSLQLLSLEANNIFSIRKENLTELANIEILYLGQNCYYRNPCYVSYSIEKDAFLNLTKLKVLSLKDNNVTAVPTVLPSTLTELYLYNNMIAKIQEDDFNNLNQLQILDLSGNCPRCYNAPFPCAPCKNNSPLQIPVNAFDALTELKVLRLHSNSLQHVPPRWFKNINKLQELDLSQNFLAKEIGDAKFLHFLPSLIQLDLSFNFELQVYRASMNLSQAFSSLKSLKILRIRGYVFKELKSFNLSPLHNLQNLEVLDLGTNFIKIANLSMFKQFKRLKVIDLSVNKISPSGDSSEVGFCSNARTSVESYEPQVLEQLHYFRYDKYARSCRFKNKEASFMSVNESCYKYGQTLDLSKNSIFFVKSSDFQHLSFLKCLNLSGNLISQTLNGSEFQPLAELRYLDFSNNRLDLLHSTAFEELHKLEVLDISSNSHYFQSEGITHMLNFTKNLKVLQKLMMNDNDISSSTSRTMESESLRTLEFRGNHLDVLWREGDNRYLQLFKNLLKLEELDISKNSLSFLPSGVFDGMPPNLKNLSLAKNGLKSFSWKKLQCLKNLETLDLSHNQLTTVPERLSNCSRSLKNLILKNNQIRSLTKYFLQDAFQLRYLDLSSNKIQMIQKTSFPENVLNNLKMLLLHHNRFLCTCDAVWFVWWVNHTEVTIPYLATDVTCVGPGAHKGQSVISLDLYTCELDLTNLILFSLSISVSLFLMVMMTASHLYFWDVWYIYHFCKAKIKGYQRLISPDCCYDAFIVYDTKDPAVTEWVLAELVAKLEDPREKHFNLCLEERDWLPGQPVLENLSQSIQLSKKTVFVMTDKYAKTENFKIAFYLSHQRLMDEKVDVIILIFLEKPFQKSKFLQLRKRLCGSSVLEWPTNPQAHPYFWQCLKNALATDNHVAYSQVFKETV
Protocol: (§4) The ability of the compounds of the present invention to activate TLR7 and TLR8 respectively was evaluated by using receptor binding experiments in vitro.
(§5) HEK-Blue™ hTLR7 (article number: hkb-htlr7) and HEK-Blue™ hTLR8 (article number: hkb-htlr8) cells were purchased from InvivoGen company. HEK-Blue™ hTLR7/8 cells can indicate the activation of TLR7/8 by detecting the activation level of NF-κB signaling pathway. HEK-Blue™ hTLR7/8 cells are derived from human embryonic kidney 293 cells, stably expressing human TLR7 or human TLR8, respectively, and can induce expression of secretory alkaline phosphatase (SEAP) to report gene system. The expression of SEAP reporter gene is regulated by IFN-β simplified promoter, which is composed of 5 NF-κB binding sequences and AP-1 binding sequences. Therefore, when TLR7/8 is activated in these two cells, NF-κB and AP-1 will be activated, and SEAP expression and extracellular secretion will be induced. By detecting the activity of SEAP outside the cell, the activation level of TLR7/8 can be indicated.
(§6) • (1) The compound was added to the cell culture plate after a 3-fold gradient dilution, with a total of 10 concentrations, with two duplicates wells for each concentration.
as §3

IL-12p40 in human PBMC = experiment: IL-12p40 induction in human PBMC (ELISA); format: cell-based
Source text: The human peripheral blood mononuclear cell (PBMC) experiment and the IL-12p40 ELISA detection method are used to detect the IL-12p40 inducing activity of the compound of the present invention in human PBMC.
Toll-like receptors (TLRs) are a series of switches that regulate the human immune system and occupy an important position in both innate (non-specific) and specific immunity. TLR8 is mainly expressed in monocytes, macrophages and myeloid dendritic cells. TLR8 is expressed on the Endosome intima of the cell and recognizes single-stranded RNA with high GU (guanylate/uridonic acid) content. After TLR8 signaling pathway is activated, it will activate the secretion of a series of downstream cytokines (IL-12, TNF-alpha, IFN-gamma, etc.), causing antiviral immune response. In this experiment, the compound was used to stimulate human PBMC, and the level of IL-12p40 protein in the culture supernatant was detected to evaluate the activation level of the compound on the TLR8 signaling pathway.
• (1) The compound was added to the cell plate after a 3-fold gradient dilution, with a total of 8 concentrations, and two duplicate wells for each concentration.
as §1

human TLR8 = target: T2, human TLR8 (Homo sapiens, UniProt Q9NR97); experiment: hTLR8 receptor binding activity in vitro (HEK-Blue hTLR8 SEAP reporter); format: cell-based; conditions: for EC50: HEK-Blue hTLR8 cells, 24 hours, SEAP OD650; for selectivity for TLR8 activation: TLR8 versus TLR7, compared with compound X
T2 construct: host or cells: HEK-Blue hTLR8 (HEK293-derived)
T2 sequence (Q9NR97 27-1041): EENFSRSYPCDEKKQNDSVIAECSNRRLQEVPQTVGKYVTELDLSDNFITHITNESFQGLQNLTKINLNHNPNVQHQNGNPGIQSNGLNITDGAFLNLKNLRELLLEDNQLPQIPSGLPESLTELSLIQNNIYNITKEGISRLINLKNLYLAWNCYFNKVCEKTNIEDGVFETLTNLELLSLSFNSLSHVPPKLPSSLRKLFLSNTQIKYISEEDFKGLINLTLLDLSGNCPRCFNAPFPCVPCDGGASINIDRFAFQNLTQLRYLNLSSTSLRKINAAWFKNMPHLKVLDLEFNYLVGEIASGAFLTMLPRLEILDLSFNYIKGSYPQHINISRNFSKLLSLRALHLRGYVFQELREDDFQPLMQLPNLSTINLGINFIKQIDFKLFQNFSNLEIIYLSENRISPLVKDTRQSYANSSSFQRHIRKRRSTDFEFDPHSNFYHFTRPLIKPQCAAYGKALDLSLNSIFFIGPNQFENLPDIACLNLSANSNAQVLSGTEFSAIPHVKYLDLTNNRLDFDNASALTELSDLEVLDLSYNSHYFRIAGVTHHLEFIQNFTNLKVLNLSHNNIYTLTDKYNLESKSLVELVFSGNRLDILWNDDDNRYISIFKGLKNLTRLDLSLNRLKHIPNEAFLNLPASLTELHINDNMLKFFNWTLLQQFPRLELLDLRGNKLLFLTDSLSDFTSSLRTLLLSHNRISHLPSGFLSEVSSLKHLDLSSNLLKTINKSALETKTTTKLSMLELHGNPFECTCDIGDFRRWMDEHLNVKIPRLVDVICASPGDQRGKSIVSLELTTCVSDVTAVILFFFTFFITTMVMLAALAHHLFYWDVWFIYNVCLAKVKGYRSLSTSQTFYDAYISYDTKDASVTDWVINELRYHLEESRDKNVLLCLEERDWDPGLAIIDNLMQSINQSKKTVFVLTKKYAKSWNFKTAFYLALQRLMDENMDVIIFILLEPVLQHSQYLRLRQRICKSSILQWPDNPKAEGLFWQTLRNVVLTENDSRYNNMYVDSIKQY
Protocol: as §4, §5, §6, §3

[5] = 24 hours, Celltiter-Glo, read-out: CC50
[6] = read-out: cytotoxic CC50 on human PBMC
[7] = human PBMC, 24 hours, ELISA OD450, read-out: IL-12p40 EC50

Compound | EC50 (human TLR7) [µM] | EC50 (human TLR8) [nM] | CC50 at 24 h [2, 5] [µM] | CC50 at 24 h [2, 6] [µM] | Kp at 1 h [3] | Kp at 4 h [3] | CC50 at 24 h [4] [µM] | selectivity for TLR8 activation (human TLR8) | EC50 (IL-12p40 in human PBMC; [7]) [nM] | further results
CCCC[C@](C)(CNC(C)=O)Nc1nc(N)nc2cc(C(=O)N(C)C)cnc12 [Compound A] | > 33 | – | > 33 | > 10 | 12.3 | 34.4 | > 33 | – | – | AUC(0-inf) ([1]; IV 5 mg/kg): 877 ng·h/mL; AUC(0-t) ([1]; IV 5 mg/kg): 876 ng·h/mL; Cmax ([1]; IV 5 mg/kg): 1830 ng/mL; MRT last ([1]; IV 5 mg/kg): 0.38 h; Tmax ([1]; IV 5 mg/kg): 4.98 min; clearance ([1]; IV 5 mg/kg): 95 mL/min/kg; half-life ([1]; IV 5 mg/kg): 40.8 min; Vd ([1]; IV 5 mg/kg, read-out: Vz): 5.59 L/kg; AUC(0-inf) ([1]; PO 50 mg/kg): 1260 ng·h/mL; AUC(0-t) ([1]; PO 50 mg/kg): 1250 ng·h/mL; Cmax ([1]; PO 50 mg/kg): 1170 ng/mL; MRT last ([1]; PO 50 mg/kg): 1.93 h; Tmax ([1]; PO 50 mg/kg): 25.2 min; bioavailability ([1]; PO 50 mg/kg): 14.2%; half-life ([1]; PO 50 mg/kg): 345 min; EC50 (IL-12p40 in human PBMC; Homo sapiens, PBMC, 24 h, read-out: IL-12p40 EC50): 31 nM; EC50 (IL-12p40 in human PBMC; Homo sapiens, PBMC, read-out: induced activity EC50 on IL-12p40): 31 nM
CCOCc1nc2c(N)nc3ccccc3c2n1CC(C)(C)O [Compound R848, reference compound] | – | – | > 71 | – | – | – | > 71 | – | 208 | –
CCCC[C@](C)(CNC(C)=O)Nc1nc(N)nc2cc(C(=O)N3CC4(CCN(c5ccccc5)CC4)C3)cnc12 [Compound T] | > 33 | 207 | – | – | – | – | > 33 | – | – | –
CCCC[C@](C)(CNC(C)=O)Nc1nc(N)nc2cc(C(C)=O)cnc12 [Compound V] | > 33 | 49 | – | – | – | – | > 33 | higher selectivity for TLR8 activation than compound X | – | –

Second part, led by results:

EC50 (human TLR7) [µM] | EC50 (human TLR8) [nM] | Compound | CC50 at 24 h [2, 5] [µM] | CC50 at 24 h [2, 6] [µM] | Kp at 1 h [3] | Kp at 4 h [3] | CC50 at 24 h [4] [µM] | selectivity for TLR8 activation (human TLR8) | EC50 (IL-12p40 in human PBMC; [7]) [nM] | further results
28.4 | 29 | CCCC[C@](C)(CNC(C)=O)Nc1nc(N)nc2cc(NC3CC3)cnc12 [Compound B] | 28.9 | > 10 | – | – | > 33 | higher selectivity for TLR8 activation than compound X | 20 | EC50 (IL-12p40 in human PBMC; human PBMC, read-out: induced activity EC50 on IL-12p40): 20 nM
11.9 | 40 | CCCC[C@](C)(CNC(C)=O)Nc1nc(N)nc2cc(CC)cnc12 [Compound X, reference compound] | – | – | 6.9 | 23.6 | > 33 | – | – | –
